This passage reports IC50 results from ChEMBL document CHEMBL5532735, “Novel Furopyridine and Furopyrimidine Compounds as PI4K Inhibitors for Treating Malaria and Viral Infection” (ACS Med Chem Lett, 2024).

Broadly, the IC50 is the concentration that inhibits the measured activity by half.

The test system of the test is Plasmodium falciparum. Nature of the test: Antimalarial activity against Plasmodium falciparum assessed as inhibition of parasite growth by [3H]hypoxanthine incorporation assay. The format is functional, organism-based.
As for `Cn1cc(-c2cc3nccc(-c4cccc(S(C)(=O)=O)c4)c3o2)ccc1=O`, the IC50 was below 10 nM.
In the case of `CC(C)(O)c1cc(-c2ccnc3cc(-c4ccc(S(C)(=O)=O)cc4)oc23)ccn1`, the IC50 was below 10 nM.
The figure for `CS(=O)(=O)c1ccc(-c2cc3nccc(-c4cccc(C5(O)CCC5)c4)c3o2)cc1` is below 10 nM.
The figure for `CC(C)(O)c1cccc(-c2ncnc3cc(-c4ccc(S(C)(=O)=O)cc4)oc23)c1F` is below 10 nM.
As for `CC(C)(O)c1cccc(-c2ncnc3cc(-c4ccc(S(C)(=N)=O)cc4)oc23)c1F` (stereo unspecified), the figure is below 10 nM; as for `CS(=O)(=O)c1ccc(-c2cc3nccc(-c4cccc(C5(O)CCC(F)(F)CC5)c4)c3o2)cn1`, below 10 nM.
